Where two headings read alike, the source gives them in different places.
Assays:
M1 muscarinic receptor = target: T1, M1 muscarinic receptor (Homo sapiens, UniProt P11229); test: Functional mobilization of intracellular calcium (FLIPR, Fluo-3), M1-CHO cells; format: cell-based; details: for Emax: read-out: M1 Efficacy
T1 construct: expressed in transfected cells; host or cells: CHO cells (M1-CHO, under zeocin and G418 selection)
T1 sequence (P11229 1-460): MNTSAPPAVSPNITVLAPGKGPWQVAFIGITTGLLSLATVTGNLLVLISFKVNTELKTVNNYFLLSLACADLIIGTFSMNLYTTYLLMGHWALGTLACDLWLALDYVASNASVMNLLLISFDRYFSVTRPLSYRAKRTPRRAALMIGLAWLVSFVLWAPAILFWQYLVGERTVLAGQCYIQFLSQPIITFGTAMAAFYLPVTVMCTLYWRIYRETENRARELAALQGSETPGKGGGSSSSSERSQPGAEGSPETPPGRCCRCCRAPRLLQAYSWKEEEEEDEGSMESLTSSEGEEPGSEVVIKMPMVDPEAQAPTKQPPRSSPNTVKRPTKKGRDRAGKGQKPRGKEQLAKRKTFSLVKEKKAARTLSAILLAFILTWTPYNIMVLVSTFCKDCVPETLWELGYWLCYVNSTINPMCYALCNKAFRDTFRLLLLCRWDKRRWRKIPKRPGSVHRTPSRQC
Procedure, shortened: (§1)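 CHO lines stably carrying the muscarinic subtype, dye-loaded with Fluo-3 at 37° C for 60-90 min, receive test compound in 0.5% DMSO. Agonist effects are read directly; antagonist effects against carbachol at EC80 after 15 min pre-incubation.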

M4 muscarinic receptor = target: T2, M4 muscarinic receptor (Homo sapiens, UniProt P08173); test: Functional mobilization of intracellular calcium (FLIPR, Fluo-3), M4-CHO cells; format: cell-based; details: for Emax: read-out: M4 Efficacy
T2 construct: expressed in transfected cells; host or cells: CHO cells (M4-CHO, under puromycin, zeocin and blasticidin selection)
T2 sequence (P08173 1-479): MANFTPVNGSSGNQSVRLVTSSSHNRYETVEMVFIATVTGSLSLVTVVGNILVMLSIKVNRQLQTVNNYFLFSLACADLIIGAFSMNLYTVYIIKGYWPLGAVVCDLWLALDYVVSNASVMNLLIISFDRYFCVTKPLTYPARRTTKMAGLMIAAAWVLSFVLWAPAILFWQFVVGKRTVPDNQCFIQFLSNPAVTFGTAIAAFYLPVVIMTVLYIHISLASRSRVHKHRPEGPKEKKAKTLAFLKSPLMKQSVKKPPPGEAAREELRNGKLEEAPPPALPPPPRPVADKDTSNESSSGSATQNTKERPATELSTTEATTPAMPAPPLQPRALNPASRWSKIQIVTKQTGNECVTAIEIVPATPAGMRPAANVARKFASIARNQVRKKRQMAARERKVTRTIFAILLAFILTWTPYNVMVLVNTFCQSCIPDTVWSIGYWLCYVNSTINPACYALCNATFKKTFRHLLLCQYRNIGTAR
Procedure, shortened: as §1

[1] = compound nos. 1-454, 100% efficacy is the maximum response obtained with the Carbachol control
[2] = compound nos. 1-454, M1-CHO cells, calcium mobilization
[3] = compound nos. 1-454, M4-CHO cells, calcium mobilization
[4] = compound nos. 455-509, 100% efficacy is the maximum response obtained with the Carbachol control

| SMILES | Emax (M1 muscarinic receptor; [1]) [%] | M1 Activity (M1 muscarinic receptor; [2]) | Emax (M4 muscarinic receptor; [1]) [%] | M4 Activity (M4 muscarinic receptor; [3]) | other results |
| --- | --- | --- | --- | --- | --- |
| Cc1ccc2c(c1)C1(CCN(C3CC4CCC3C4)CC1)CN2 (stereo not shown) [compound 350] | > 85 | +++ (activity was measured to be less than or equal to 0.7 μM) | > 70 | +++ (activity was measured to be less than or equal to 0.1 μM) | – |
| CCOC(=O)N1CCC(N2CCC3(CC2)CN(C(C)=O)c2ccc(-c4ccncc4)cc23)CC1 [compound 105] | < 65 | ++ (activity was measured to be between 0.7 μM and 3.0 μM) | < 55 | + (activity was measured to be greater than or equal to 4.0 μM) | – |
| CC(=O)NC1CC2(CCN(CC3CC4C=CC3C4)CC2)c2ccccc21 (stereo not shown) [compound 180] | 65 to 85 | +++ (activity was measured to be less than or equal to 0.7 μM) | 55 to 70 | +++ (activity was measured to be less than or equal to 0.1 μM) | – |
| CC(=O)NC1CC2(CCN(C3CCCCC3)CC2)c2ccccc21 (stereo not shown) [compound 2] | < 65 | + (activity was measured to be greater than or equal to 3.0 μM) | < 55 | + (activity was measured to be greater than or equal to 4.0 μM) | – |
| CC(=O)N1CC2(CCN(C3CC4CCC(C3)N4C(=O)O[C@H]3CCOC3)CC2)c2cc(F)ccc21 (stereo partly shown) [compound 47] | 65 to 85 | +++ (activity was measured to be less than or equal to 0.7 μM) | 55 to 70 | ++ (activity was measured to be between 0.1 μM and 4.0 μM) | – |
| CCOC(=O)N1C2CCC1CC(N1CCC3(CC1)CN(C(=O)C1CCC1)c1ccc(F)cc13)C2 (stereo not shown) [compound 179] | > 85 | ++ (activity was measured to be between 0.7 μM and 3.0 μM) | 55 to 70 | + (activity was measured to be greater than or equal to 4.0 μM) | – |
| CC(=O)N1CC2(CCN(C3CCN(c4nccs4)CC3)CC2)c2cc(F)ccc21 [compound 432] | 65 to 85 | – | 55 to 70 | – | M1 Activity (M1 muscarinic receptor; compound nos. 1-454): +++ (activity was measured to be less than or equal to 0.7 μM); M4 Activity (M4 muscarinic receptor; compound nos. 1-454): +++ (activity was measured to be less than or equal to 0.1 μM) |
| CCCCC(=O)N1CC2(CCN(C3CCN(C(=O)OCC)CC3)CC2)c2cc(F)ccc21 [compound 270] | 65 to 85 | +++ (activity was measured to be less than or equal to 0.7 μM) | > 70 | +++ (activity was measured to be less than or equal to 0.1 μM) | – |
| CCOC(=O)N1CCC(N2CCC3(CC2)CN(C(=O)c2ccc4c(c2)OCO4)c2ccc(F)cc23)CC1 [compound 401] | 65 to 85 | – | < 55 | – | M1 Activity (M1 muscarinic receptor; compound nos. 1-454): +++ (activity was measured to be less than or equal to 0.7 μM); M4 Activity (M4 muscarinic receptor; compound nos. 1-454): + (activity was measured to be greater than or equal to 4.0 μM) |
| CCOC(=O)N1C2CCC1CC(N1CCC3(CC1)CN(C(C)=O)c1ccc(Cl)cc13)C2 (stereo not shown) [compound 417] | < 65 | – | < 55 | – | M1 Activity (M1 muscarinic receptor; compound nos. 1-454): ++ (activity was measured to be between 0.7 μM and 3.0 μM); M4 Activity (M4 muscarinic receptor; compound nos. 1-454): + (activity was measured to be greater than or equal to 4.0 μM) |
| CCOC(=O)N1CCC(N2CCC3(CC2)CN(C(=O)c2ccncc2)c2ccc(F)cc23)CC1 [compound 260] | 65 to 85 | +++ (activity was measured to be less than or equal to 0.7 μM) | < 55 | + (activity was measured to be greater than or equal to 4.0 μM) | – |
| CCOC(=O)N1CCC(CN2CCC3(CC2)COc2ccc(F)cc23)CC1 [compound 107] | 65 to 85 | +++ (activity was measured to be less than or equal to 0.7 μM) | < 55 | + (activity was measured to be greater than or equal to 4.0 μM) | – |
| CCOC(=O)N1C2CCC1CC(N1CCC3(CC1)CN(C(=O)c1ccno1)c1ccc(F)cc13)C2 (stereo not shown) [compound 88] | 65 to 85 | +++ (activity was measured to be less than or equal to 0.7 μM) | < 55 | ++ (activity was measured to be between 0.1 μM and 4.0 μM) | – |
| Clc1ccc2c(c1)C1(CCN(C3CC4CCC(C4)C3)CC1)CN2 (stereo not shown) [compound 85] | 65 to 85 | +++ (activity was measured to be less than or equal to 0.7 μM) | 55 to 70 | ++ (activity was measured to be between 0.1 μM and 4.0 μM) | – |
| CCOC(=O)N1CCC(N2CCC3(CC2)CN(C(=O)c2cc(C)oc2C)c2ccc(F)cc23)CC1 [compound 335] | < 65 | + (activity was measured to be greater than or equal to 3.0 μM) | < 55 | + (activity was measured to be greater than or equal to 4.0 μM) | – |
| Clc1ccc2c(c1)C1(CCO2)CCN(C2CCCCC2)CC1 [compound 276] | 65 to 85 | +++ (activity was measured to be less than or equal to 0.7 μM) | 55 to 70 | + (activity was measured to be greater than or equal to 4.0 μM) | – |
| CCOC(=O)N1CCC(N2CCC3(CC2)CN(C(C)=O)c2ccc(OC(F)(F)F)cc23)CC1 [compound 225] | < 65 | + (activity was measured to be greater than or equal to 3.0 μM) | < 55 | + (activity was measured to be greater than or equal to 4.0 μM) | – |
| CS(=O)(=O)N[C@H]1CC2(CCN(C[C@H]3C[C@H]4C=C[C@H]3C4)CC2)c2ccccc21 [compound 70] | 65 to 85 | ++ (activity was measured to be between 0.7 μM and 3.0 μM) | 55 to 70 | + (activity was measured to be greater than or equal to 4.0 μM) | – |
| COC(=O)N1C2CCC1CC(N1CCC3(CC1)CN(C1CCN(c4nc(C)ns4)CC1)c1ccccc13)C2 (stereo not shown) [compound 490] | – | – | – | – | Emax (M1 muscarinic receptor; [4]): > 100%; M1 Activity (M1 muscarinic receptor; compounds 455-509): ++ (activity was measured to be between 2.0 μM and 5.0 μM); Emax (M4 muscarinic receptor; [4]): 25 to 100%; M4 Activity (M4 muscarinic receptor; compounds 455-509): ++ (activity was measured to be between 2.0 μM and 5.0 μM) |
| CC(=O)N[C@H]1CC2(CCN([C@@H]3C[C@@H]4CC[C@@H]3C4)CC2)c2ccccc21 [compound 158] | > 85 | +++ (activity was measured to be less than or equal to 0.7 μM) | > 70 | + (activity was measured to be greater than or equal to 4.0 μM) | – |
| Fc1ccc2c(c1)C1(CCN(C3CC4CCC(C4)C3)CC1)CN2 (stereo not shown) [compound 377] | 65 to 85 | – | 55 to 70 | – | M1 Activity (M1 muscarinic receptor; compound nos. 1-454): +++ (activity was measured to be less than or equal to 0.7 μM); M4 Activity (M4 muscarinic receptor; compound nos. 1-454): ++ (activity was measured to be between 0.1 μM and 4.0 μM) |
| CC(=O)N1CC2(CCN(C3CCN(c4cnc(C)c(C)n4)CC3)CC2)c2ccccc21 [compound 471] | – | – | – | – | Emax (M1 muscarinic receptor; [4]): > 100%; M1 Activity (M1 muscarinic receptor; compounds 455-509): ++ (activity was measured to be between 2.0 μM and 5.0 μM); Emax (M4 muscarinic receptor; [4]): 25 to 100%; M4 Activity (M4 muscarinic receptor; compounds 455-509): ++ (activity was measured to be between 2.0 μM and 5.0 μM) |
| CN(C)C(=O)N1CC2(CCN(C3CCN(c4cncc(Cl)n4)CC3)CC2)c2ccccc21 [compound 469] | – | – | – | – | Emax (M1 muscarinic receptor; [4]): > 100%; M1 Activity (M1 muscarinic receptor; compounds 455-509): +++ (activity was measured to be less than or equal to 2.0 μM); Emax (M4 muscarinic receptor; [4]): 25 to 100%; M4 Activity (M4 muscarinic receptor; compounds 455-509): ++ (activity was measured to be between 2.0 μM and 5.0 μM) |
| CN(C)C(=O)N1CC2(CCN(CC3CCN(c4cnccn4)C3)CC2)c2cc(F)ccc21 (stereo not shown) [compound 449] | – | – | – | – | M1 Activity (M1 muscarinic receptor; compound nos. 1-454): +++ (activity was measured to be less than or equal to 0.7 μM); M1 Efficacy (M1 muscarinic receptor; [1]): ++ (efficacy was calculated to be between 85% and 65%); M4 Activity (M4 muscarinic receptor; compound nos. 1-454): +++ (activity was measured to be less than or equal to 0.1 μM); M4 Efficacy (M4 muscarinic receptor; [1]): ++ (efficacy was calculated to be between 70% and 55%) |
| CCc1nsc(N2CCC(N3CCC4(CCN(C(=O)N(C)C)c5ccccc54)CC3)CC2)n1 [compound 455] | – | – | – | – | Emax (M1 muscarinic receptor; [4]): > 100%; M1 Activity (M1 muscarinic receptor; compounds 455-509): +++ (activity was measured to be less than or equal to 2.0 μM); Emax (M4 muscarinic receptor; [4]): 25 to 100%; M4 Activity (M4 muscarinic receptor; compounds 455-509): ++ (activity was measured to be between 2.0 μM and 5.0 μM) |

— US7858635B2 (priority 2005, dated 2010)
